Assay [1] relates to Acyrthosiphon pisum aphids. Put plainly: Aphid developmental stage monitoring. In kind it is in vivo. As for the experimental part:
In addition, the developmental stage (1st, 2nd, 3rd, 4th, 5th instar) was determined daily throughout the experiment. Once an aphid reached the 4th instar stage, they were given their own artificial feeding system in a deep petri dish so that fecundity could be monitored once they reached adulthood.
Each treatment group received approximately the same number of individuals from each of the collection plant. For each treatment, 20 aphids were placed onto each leaf. Aphids were monitored daily for survival and dead aphids were removed when they were discovered. In addition, the developmental stage (1st, 2nd, 3rd, 4th, 5th instar, and 5R, representing a reproducing 5th instar) was determined daily throughout the experiment. Pictures of aphids were taken throughout the experiment to evaluate size differences between treatment groups.
(Vroma vicia faba from Johnny's Selected Seeds) in a climate-controlled incubator (16 h light/8 h dark photoperiod; 60±5% RH; 25±2° C.). Prior to being used for aphid rearing, fava bean plants were grown in potting soil at 24° C. with 16 h of light and 8 h of darkness. To limit maternal effects or health differences between plants, 5-10 adults from different plants were distributed among 10 two-week-old plants, and allowed to multiply to high density for 5-7 days. […] Aphids were monitored daily for survival and dead aphids were removed from the deep petri dish when they were discovered. In addition, the developmental stage (1st, 2nd, 3rd, 4th, 5th and 5R (5th that has reproduced) instar) was determined daily throughout the experiment.
In addition, the developmental stage (1st, 2nd, 3rd, 4th, 5th, and 5R (5th that has reproduced) instar) was determined daily throughout the experiment.
In addition, the developmental stage (1st, 2nd, 3rd, 4th, 5th, and 5R (5th instar aphids that are reproducing) instar) was determined daily throughout the experiment.
In addition, the developmental stage (1st, 2nd, 3rd, 4th, and 5th instar) was determined daily throughout the experiment.
In addition, the developmental stage (1st, 2nd, 3rd, 4th, 5th, and 5R (5th that has reproduced) instar) was determined daily throughout the experiment. Once an aphid reached the 4th instar stage, they were given their own artificial feeding system in a deep petri dish so that fecundity could be monitored once they reached adulthood.
For each treatment, 30 aphids were placed onto each leaf in triplicate. […] Aphids were monitored daily for survival and dead aphids were removed from the deep petri dish when they were discovered. In addition, the developmental stage (1st, 2nd, 3rd, 4th, 5th, and 5R (5th instar aphids that are reproducing) instar) was determined daily throughout the experiment. […]

Assay [2] relates to Acyrthosiphon pisum aphids. Put plainly: Aphid body area (size) measurement. Format: in vivo. Particulars: 10 or 100 uM pantothenol, through plants; by 3 days post-treatment. The procedure: For adult aphids, new nymphs were counted daily and then discarded. At the end of the experiments, fecundity was determined as the mean number of offspring produced daily once the aphid reached adulthood. Pictures of aphids were taken throughout the experiment to evaluate size differences between treatment groups.
Each treatment group received approximately the same number of individuals from each of the collection plant. For each treatment, 20 aphids were placed onto each leaf. Aphids were monitored daily for survival and dead aphids were removed when they were discovered. In addition, the developmental stage (1st, 2nd, 3rd, 4th, 5th instar, and 5R, representing a reproducing 5th instar) was determined daily throughout the experiment. […]
For adult aphids, new nymphs were counted daily and then discarded. At the end of the experiments, fecundity was measured in two ways: 1) the mean day at which the first offspring for the treatment group was determined and 2) the mean number of offspring produced daily once the aphid reached adulthood. […]
Aphids LSR-1 (which harbor only Buchnera), Acyrthosiphon pisum were grown on fava bean plants (Vroma vicia faba from Johnny's Selected Seeds) in a climate-controlled incubator (16 h light/8 h dark photoperiod; 60±5% RH; 25±2° C.). […] Aphids were monitored daily for survival and dead aphids were removed from the deep petri dish when they were discovered. […]

The text below walks through data of patent US20190387748A1, “COMPOSITIONS AND RELATED METHODS FOR AGRICULTURE” (priority 2017, published 2019).

Entries after “also recorded” stand apart in the source; their conditions may differ.

As for `CC(C)(CO)[C@@H](O)C(=O)NCCCO` [pantothenol], the Aphid development entry in assay [1] (eNASCO 1st and 2nd instar, 10 or 100 uM pantothenol in artificial diet without essential amino acids, through plants) is recorded as “delayed aphid development; also recorded: Development was delayed”; in assay [1] (eNASCO first instar, leaf coating, 100 μl of 10 uM pantothenol in 0.025% Silwet L-77), “did not affect aphid development; also recorded: matured at similar rates up to two days post-treatment”. Also, the “Aphid area (body size)” value in assay [2] is listed as “drastic effect of pantothenol treatment; also recorded: smaller in area than untreated controls”.
